According to US11787850B2, “Peptidic TGF-beta antagonists” (priority 2015, dated 2023):

Key:
[1] = Size-exclusion chromatography on Superdex Peptide 10/300GL column; assay type: physicochemical
Procedure: Approximately 200 μg of each peptide X (40 amino acids), X-1 (28 amino acids), peptide A (161 amino acids), P11 (11 amino acids), P16 (16 amino acids), P21 (21 amino acids, P16-2 (16 amino acids, scrambled sequence control), X-3 (16 amino acids) and X-4 (11 amino acids) were dissolved in phosphate-buffered saline (PBS) and loaded onto a Superdex Peptide 10/300GL column. The column was eluted with PBS at a flow rate of 0.6 mL/min and eluents were analyzed for peptide content by measuring relative absorbance at a wavelength of 215 nm. (FIGS. 3A and 3B) The data is plotted with relative absorbance (Y-axis) against elution volume (X-axis). Peptides 1-9 are color coded (A—peptides (1) to (5); B (peptides (6) to (9)). As shown on panel A, peptide X (peptide 1, black line) elution profile indicated two major peaks at approximately 8 mL and 11 mL which correspond to molecular weights greater than 12.4 kDa. The theoretical molecular weight of peptide X is 4.7 kDa which is expected to elute from the column at approximately 15 mL. Under the conditions tested, peptide X existed as high molecular weight aggregates with minimal soluble (monomeric) form. On the other hand, P16 (peptide 5, green line) elution profile indicated a broad peak between 14-22 mL which is expected to contain peptides of between 0.1 and 6 kDa and is consistent with its theoretical molecular weight of 2.01 kDa.
FIG. 4 illustrates the standard curve used for size-exclusion chromatography of standard peptides using the Superdex Peptide 10/300 GL column (results provided in FIG. 3). A pool of standard peptides of various molecular weights (1. cytochrome c (Mr 12.384 kDa) 1 mg/mL; 2. aprotinin (Mr 6.512 kDa) 2 mg/mL; 3. vitamin B12 (Mr 1.355 kDa) 0.1 mg/mL; 4. (Gly)3 (Mr 0.189 kDa) 0.1 mg/mL; 5. Gly (Mr 0.075 kDa) 7.8 mg/mL) were subjected to size-exclusion chromatography using the Superdex Peptide 10/300 GL column (flow rate 0.5 ml/min at room temperature, sample volume of 50 μL, eluent 0.05M phosphate, 0.15 M NaCl, ph 7.0). The resulting chromatogram (absorbance at 215 nm (in mAU, left Y axis) and conductivity (in mS/cm, right Y axis, in function of volume of elution (in mL)) indicates the elution profiles of the above peptides with high MW peptides eluting in earlier fractions and lower MW peptides eluting in later fractions as expected. The molecular weights of peptides were plotted against elution volume generating a standard curve (not shown).
More specifically, approximately […] of each peptide X (40 amino acids), X-1 (28 amino acids), peptide A (161 amino acids), P11 (11 amino acids), P16 (16 amino acids), P21 (21 amino acids, P16-2 (16 amino acids, scrambled sequence control), X-3 (16 amino acids) and X-4 (11 amino acids) were dissolved in phosphate-buffered saline (PBS) and loaded onto a Superdex Peptide 10/300GL column. The column was eluted with PBS at a flow rate of 0.6 ml/min and eluants were analyzed for peptide content by measuring relative absorbance at a wavelength of 215 nm. The data were plotted with relative absorbance (Y-axis) against elution volume (X-axis). […] The theoretical molecular weight of peptide X is 4.7 kDa which is expected to elute from the column at approximately 15 mL. […] P16 (peptide 5) elution profile indicated a peak between 14-22 mL which was expected to contain peptides of between 0.1 and 6 kDa and is consistent with its theoretical molecular weight of 2.01 kDa.
More specifically, a pool of standard proteins of various molecular weights were subjected to size-exclusion chromatography using the Superdex Peptide 10/300 GL column. The resulting chromatogram indicated the elution profiles of the peptides with high molecular weight peptides eluting in earlier fractions and lower molecular weight peptides eluting in later fractions as expected. The molecular weights of peptides were plotted against elution volume generating a standard curve (not shown) and was used to calculate molecular weights of the CD109-based peptides. […]

[2] = system: TGF-β-induced migration of breast cancer (MDA-MB-231) cells; assay: Scratch migration assay, MDA-MB-231 cells; assay type: cell-based; conditions: 10 nM peptide, 100 pM TGF-β1, 24 hours (FIG. 11)
Procedure: (§1) FIG. 11A and FIG. 11B illustrate that peptides B, E and X-1 inhibit TGF-β-induced cellular migration of MDA-MB-231 cells in vitro. Results are shown prior to treatment (0 hr, top panels) and after treatment (24 hr, bottom panels) for each of the peptides used.
(§2) Squamous cell carcinoma (A431) or breast cancer (MDA-MB-231) cells were grown to 80-90% confluence and serum-starved overnight. The next day, cells were scratched with a plastic pipette tip (time 0 hour) and then left untreated or treated for 24 hours with 100 pM TGF-β1 alone or in the presence of 10 nM peptide B (100 aa), E (67 aa), or X1 (P28, 28 aa). Digital images were captured at 0 h and 24 h (20× magnification) using an EVOS XL Core microscope.

[3] = system: TGF-β1-induced Smad3-driven (CAGA12-lux) transcriptional activity; assay: Luciferase reporter assay in HEK293-(CAGA)12 cells; assay type: cell-based; conditions: 10 nM or 5 nM peptide, 100 pM TGF-β1, 18 hours (FIG. 5)
[4] = system: TGF-β-induced migration of squamous cell carcinoma (A431) cells; assay: Scratch (wound closure) migration assay, A431 cells; assay type: cell-based; conditions: 10 nM peptide, 100 pM TGF-β1, 24 hours (FIG. 10)
Procedure: as §1, with “10A” for “11A”, “10B” for “11B”, “A431” for “MDA-MB-231”, “used. (See FIG. 2 and Table 1 for the amino acid sequence identity of the peptides).” for “used.”
A431 cells were grown to 80-90% confluence and serum-starved overnight. The next day, cells were scratched with a plastic pipette tip (time 0 hour) and then left untreated or treated for 24 hours with 100 pM TGF-β1 alone or in the presence of P16 as indicated. (FIG. 27A) Digital images were captured at 0 h and 24 h using an EVOS XL Core microscope. (FIG. 27B) Micrographs were subsequently quantitated to determine the percentage of the wound area that had closed following 24 hours in the presence or absence of P16, as indicated.
Cells were scratched with a pipette tip and treated without or with 100 pM TGF-b1 alone or in the presence of 10 nM Peptide A or Peptide A1 (C31S mutant). Pictures were taken at 0 and 24 hrs. Peptide A but not Peptide A1 inhibits TGF-b-induced migration in A431 cells. Peptide A contains monomeric and dimeric forms whereas Peptide A1 contains a C31S mutation to prevent intermolecular disulfide bond formation so that it forms monomers only.
as §2

[5] = system: TGF-β-induced epithelial-mesenchymal transition (EMT) response in squamous cell carcinoma (A431) cells; assay: Immunoblot of EMT markers in A431 cells; assay type: cell-based; conditions: 10 nM peptide, 100 pM TGF-b, 24 hrs (FIG. 33)
Procedure: (FIG. 26A) Immunoblot analysis was carried out using cell lysates of A431 cells following incubation with TGF-β, P16, or scrambled control (P16.2) as indicated to determine expression of proteins involved in the EMT response. (FIG. 26B) Densitometry analysis was subsequently performed using the developed immunoblot to illustrate the relative expression of each protein as a function as P16 concentration as indicated.
A431 cancer cells treated with 10 nM of P16.2 (negative peptide control), P12, P16 or PA in the absence or presence of 100 pM TGF-b, followed by 24 hrs of incubation. Cells lysates were analyzed by Western blot for the expression of Fibronectin (mesenchymal marker), Snail and Twist (EMT markers). Actin expression was used as loading control.

[6] = system: TGF-β-induced migration of HaCaT cells; assay: Scratch assay in HaCaT cells with pathway inhibitors; assay type: cell-based, human; conditions: 100 pM TGF-β1, 36 hrs; 0.5 μM SB431542, 1 μM SB203580, 10 μM U0126
Procedure: (FIG. 18A) HaCaT cells transfected with control or CD109 siRNA were scratched and treated with or without 100 pM TGF-β1, 0.5 μM SB431542, 1 μM SB203580 and/or 10 μM U0126 for 36 hrs. Dotted line: wound margin at 0 hr, regular line: wound margin at 36 hrs.
Confluent monolayers of HaCaT or A431 cells were wounded by scrapping the cells with a 200 μl pipette tip. Cells were then incubated with 100 pM TGF-β1, in presence or absence of 10 μM U0126, 1 μM SB203580, 0.5 μM SB431542 in serum free medium for 24-48 hrs. Pictures were taken at the same spot at 0 hr, 24 hrs and 48 hrs. The cell-free area (wound) area was measured using ImageJ™ software and the percentage of original wound area filled with keratinocytes was calculated. At least 3 independents series of experiments were performed in triplicates.
Finally, it was determined whether CD109's effect on migration was also mediated by the SMAD2/3 and MAPK pathways.

[7] = system: TGF-β-induced fibronectin and Slug expression in HaCaT cells; assay: Western blot for fibronectin and Slug in HaCaT cells with pathway inhibitors; assay type: cell-based, human; conditions: for effect of CD109 knock-down on TGF-β-induced Slug expression: 100 pM TGF-β1, 4 hrs, 0.5 μM SB431542, 10 μM U0126; for fibronectin production: CD109 siRNA HaCaT cells, 100 pM TGF-β1, 16 hrs, 0.5 μM SB431542, 1 μM SB203580, 10 μM U0126
[8] = system: TGF-β-induced EMT in HaCaT cells; assay: Immunofluorescence of F-actin and E-cadherin in HaCaT cells with pathway inhibitors; assay type: cell-based, human; conditions: for effect mediated by CD109 siRNA transfection on actin stress fibers appearance and relocalization of E-cadherin / effect on EMT markers in the absence of TGF-β: 0.5 μM SB431542, 1 μM SB203580, 10 μM U0126; for effect on EMT markers in the absence of TGF-β: data not shown
[9] = system: cancer stem cells (CD133 positive cells), epidermoid A431; assay: Flow cytometry of CD133 positive cells, A431; assay type: cell-based; conditions: 10 nM, 100 pM TGF-b1, 24 hours (FIG. 39)
Procedure: (§3) A431 cancer cells (8000 cells) were seeded on a BioCoat™ Matrigel® Invasion Chamber and treated with 10 nM of P16.2 (negative peptide control), P16 or PA in the absence or presence of 100 pM TGF-b, followed by 24 hrs of incubation. Invasive cells (in the lower chambers) were stained by crystal violet dye, photographed and counted. Representative photos (A) and statistical plots of invasion (B) are shown. The data are shown as mean±SD of the number of invasive cells for three independent experiments. **P<0.01 and ***P<0.001 as compared with controls. […] Squamous cell carcinoma (epidermoid A431 and head and neck FaDu) cells were stimulated with 100 pM of TGF-b1, then treated with 10 nM of peptide 16.2, P16, PA or CD109 for 24 hours. Cells were analysed by Flow cytometry and CD133 positive cell population, which represent cancer stem cell population, were quantified.

[10] = system: bleomycin-induced skin fibrosis; assay: Bleomycin-induced skin fibrosis (scleroderma) mouse model; assay type: in vivo
Procedure: Wild type mice were treated with bleomycin ([…]) to induce skin fibrosis or PBS (negative control). Mice were treated with CD109 ([…]), P16 ([…]), or PBS by 100 μL subcutaneous injection every other day for 28 days for a total of 14 injections.
(§4) Mice were injected intradermally with bleomycin (5 mg) in […] PBS or PBS alone every second day for 28 days. Mice were co-injected without or with 1.0 mg recombinant CD109 protein or P16 peptide every second day for 28 days (14 mg total). Skin tissue was harvested and immunohistochemical analysis was performed for the detection of Fibronectin, α-sma, CTGF and Type-1 Collagen. Representative images of sections of skin derived from CD109 and p16 treated mice on day 28 after initial bleomycin or PBS treatment are shown. A total of 4-6 different mice per treatment group were analyzed. Original magnification x 20.
as §4, with “phospho-Smad2, phospho-Smad1” for “Fibronectin, α-sma, CTGF”, “TGF-β levels.” for “Type-1 Collagen.”

[11] = system: cancer stem cells (CD133 positive cells), head and neck FaDu; assay: Flow cytometry of CD133 positive cells, FaDu; assay type: cell-based; conditions: 10 nM, 100 pM TGF-b1, 24 hours (FIG. 39)
Procedure: as §3

[12] = co-injected with bleomycin every second day for 28 days (FIG. 37)

ETWIWLDTNMGSRIYQEFEVTVPDSITS (Peptide X-1)
formation of aggregates by size-exclusion chromatography ([1]; peptide in PBS, Superdex Peptide 10/300GL, 0.6 ml/min): formed aggregates | Aggregation? ([1]; size-exclusion chromatography, peptide dissolved in PBS): Aggregated | inhibition of TGF-β-induced cellular migration of MDA-MB-231 cells [2]: inhibit | inhibition of TGF-β1-induced CAGA12-lux activity [3]: inhibited | inhibition of TGF-β-induced cellular migration of A431 cells [4]: inhibit

ETWIWLDTNMGS [Peptide P12]
inhibition of TGF-b induced EMT response (Fibronectin, Snail, Twist) [5]: not

N#CC(=C(/N)Sc1ccccc1N)/C(C#N)=C(\N)Sc1ccccc1N [Peptide U0126, U0126]
increase of TGF-β-induced cell migration by CD109 knock-down [6]: partially reversed | effect of CD109 knock-down on TGF-β-induced Slug expression [7]: abrogated | fibronectin production [7]: reduced | effect mediated by CD109 siRNA transfection on actin stress fibers appearance and relocalization of E-cadherin ([8]; 100 pM TGF-β1, 36 hrs): reduces (but does not abrogate) | effect on EMT markers in the absence of TGF-β [8]: no effect

Recombinant CD109: recombinant CD109 protein
number of cancer stem cells (CD133 positive cells), A431 [9]: inhibit | SMAD1 phosphorylation in skin (immunohistochemistry) [10, 12]: enhancing | SMAD2 phosphorylation in skin (immunohistochemistry) [10, 12]: reduces | TGF-β expression in skin (immunohistochemistry) [10, 12]: reduces | extracellular matrix production (Fibronectin, α-sma, CTGF, Type-1 Collagen, immunohistochemistry) ([10]; co-injected with bleomycin every second day for 28 days, skin on day 28 (FIG. 36)): reduces | number of cancer stem cells (CD133 positive cells), FaDu [11]: inhibit

NC(=O)c1ccc(-c2nc(-c3ccc4c(c3)OCO4)c(-c3ccccn3)[nH]2)cc1 [SB431542]
increase of TGF-β-induced cell migration by CD109 knock-down [6]: partially reversed | effect of CD109 knock-down on TGF-β-induced Slug expression [7]: abrogated | fibronectin production [7]: totally abrogated | appearance of actin stress fibers in control siRNA transfected cells ([8]; 100 pM TGF-β1, 36 hrs, 0.5 μM SB431542): totally prevents | effect mediated by CD109 siRNA transfection on actin stress fibers appearance and relocalization of E-cadherin ([8]; 100 pM TGF-β1, 36 hrs): reduces (but does not abrogate) | effect on EMT markers in the absence of TGF-β [8]: no effect
